The subject of experiment [1] is MPO release by ionomycin-activated neutrophils ex vivo. As to the kind of experiment: Study DG-031-201: MPO in whole blood ex vivo after ionomycin activation. To be noted: p=0.02. Also on record: species or system human. Here is the method: (§1) Patients who met the study eligebility criteria were enrolled and randomized into 3 different dose-level groups: (1) 64 patients on 250 mg/day therapy with DG-031 (250 mg q.d.), vs placebo; (2) 64 patients on 500 mg/day therapy with DG-031 (250 mg b.i.d.) vs placebo; and (3) 63 patients on 750 mg/day therapy with DG-031 (250 mg t.i.d.) vs placebo. […] All patients received 3 tablets per day. Treatment periods, 4 weeks in duration each, were separated by a 2-week washout period. The placebo tablets were identical in shape, color, form and taste to the active tablets except that they contained no active drug ingredients. Treatment with DG-031 or placebo was in addition to the subject's standard care, including all medications and treatment plan as prescribed by the subject's cardiologist prior to enrolment. A total of 191 subjects were enrolled, with 172 completing all 8 visits or 8 patients short of the target of 180 patients. […]
(§2) All data were analyzed according to a pre-established statistical analysis plan (SAP) and by intention-to-treat (ITT). […] The difference between DG-031 and placebo treatment was the primary outcome, assessed separately for each of the biomarkers. […]

Experiment [2] relates to CRP. As to the kind of experiment: Study DG-031-203 open label dose ranging: serum CRP. The class given is in vivo, human. Here is the method:
The study also collected information on the dose-related effect of DG-031 on capacity for LTB4 production (ex vivo), plasma MPO, and serum-CRP. […] The pattern observed supported a concentration dependent pharmacologic effect of DG-031 on capacity for LTB4 production measured ex vivo. The effects on LTB4 production amounted to a 30% (p=0.016) and 25% (p=0.094) reduction with the 375 mg BID and 250 mg TID doses, respectively.

Experiment [3] concerns LTE4 in urine. As to the kind of experiment: Study DG-031-201: LTE4 in urine. The class given is in vivo, human. The protocol: (§3) Patients who met the study eligebility criteria were enrolled and randomized into 3 different dose-level groups: (1) 64 patients on 250 mg/day therapy with DG-031 (250 mg q.d.), vs placebo; (2) 64 patients on 500 mg/day therapy with DG-031 (250 mg b.i.d.) vs placebo; and (3) 63 patients on 750 mg/day therapy with DG-031 (250 mg t.i.d.) vs placebo. […] All patients received 3 tablets per day. Treatment periods, 4 weeks in duration each, were separated by a 2-week washout period. The placebo tablets were identical in shape, color, form and taste to the active tablets except that they contained no active drug ingredients. Treatment with DG-031 or placebo was in addition to the subject's standard care, including all medications and treatment plan as prescribed by the subject's cardiologist prior to enrolment. A total of 191 subjects were enrolled, with 172 completing all 8 visits or 8 patients short of the target of 180 patients.
(§4) The primary objective was to determine whether the FLAP inhibitor has a statistically significant effect, compared to placebo, on one or more biomarkers of MI risk, including: (1) ionomycin-induced LTB4 and MPO release by neutrophils ex vivo; (2) MPO, CRP, N-tyrosine, Lp-PLA2 or amyloid A in serum, or (3) LTE4 in urine. The secondary objective was to determine whether the effect of DG-031 was dose-dependent. The tertiary objective was to assess other biomarkers (See Results). Evaluation of safety and tolerability of the drug was also a primary endpoint.
All data were analyzed according to a pre-established statistical analysis plan (SAP) and by intention-to-treat (ITT). Each arm of the study, as well as pooled sets (combining dose levels), was considered for the primary analysis. Each such set is an AB/BA cross-over design and in the primary analysis of efficacy, the levels of biomarkers of MI risk at the end of the treatment periods (visits 4 and 7) were used as primary response variables. The difference between DG-031 and placebo treatment was the primary outcome, assessed separately for each of the biomarkers. […]

Experiment [4] concerns Amyloid A. Briefly: Study DG-031-201 cross-over trial: Amyloid A in serum. The class given is in vivo, human. Conditions: week 6, p=0.05. Here is the method: as §1, §2
Experiment [5] has as its system LTB4 produced by ionomycin-activated neutrophils ex vivo. As to the kind of experiment: Study DG-031-201: LTB4 in whole blood ex vivo after ionomycin activation, mass spectrometry. Also on record: species or system human. The protocol: as §3, §4
All data were analyzed according to a pre-established statistical analysis plan (SAP) and by intention-to-treat (ITT). Each arm of the study, as well as pooled sets (combining dose levels), was considered for the primary analysis. Each such set is an AB/BA cross-over design and in the primary analysis of efficacy, the levels of biomarkers of MI risk at the end of the treatment periods (visits 4 and 7) were used as primary response variables. The difference between DG-031 and placebo treatment was the primary outcome, assessed separately for each of the biomarkers. Treatment effect was tested using a two-sample t-test on the period differences for suitably transformed response variables, under an assumption of normality of the transformed data. We report treatment effect as one half of the observed mean differences in the two-sample t-test, with a 95% CI. No pre-tests for carry-over effect were performed as a part of the primary analysis. Tests for carry-over were done and are reported separately from results of primary analysis. All hypotheses were tested at a two-sided nominal significance level of 0.05 and p-values based on t-tests are reported. […]

Experiment [6] concerns MMP-9. Briefly: Study DG-031-201: MMP 9. Type of experiment: in vivo, human. Conditions: difference visit 2 to visit 5; 500 and 750 mg/day vs placebo cohort. The protocol: as §3
All data were analyzed according to a pre-established statistical analysis plan (SAP) and by intention-to-treat (ITT). Each arm of the study, as well as pooled sets (combining dose levels), was considered for the primary analysis. […] The difference between DG-031 and placebo treatment was the primary outcome, assessed separately for each of the biomarkers. […]

Where [7] appears, read: difference visit 2 to visit 5, 500 and 750 mg/day vs placebo cohort.

For `O=C(O)[C@@H](c1ccc(OCc2ccc3ccccc3n2)cc1)C1CCCC1` [DG-031, (R)-(+)-alpha-cyclopentyl-4-(2-quinolinylmethoxy)-Benzeneacetic acid], in experiment [1] (750 mg/day, [2%,21%]), the “Maximum reduction in MPO production” value worked out at 12%. The “Inhibition of MPO release” value in experiment [1] (combined dose groups of 500 mg and 750 mg TDD) is “about 12%”. Also, the “Reduction in CRP levels, high CRP group” value in experiment [2] (250 mg TID, CRP above median (1.4 mg/L) at entry, P=0.014) turned out to be 48%. Further, the CRP in experiment [2] (250 mg TID, St. 203, 1 wk, p = 0.07) is on record as 37% (St. 203); in experiment [2] (375 mg BID, Study 203), “No effect”; in experiment [2] (375 mg QD, Study 203, 1 wk, p = 0.021), −28%. In addition, the “Reduction of serum CRP” value in experiment [2] (250 mg TID, after one week of therapy, all subjects, follow-up study 203, [9%,57%]) was found to be 38%. The “Change in CRP” value in experiment [2] (375 mg BID, all subjects, one week, p=0.94) is listed as −1%. Further, the “Reduction of CRP, high CRP group” value in experiment [2] (375 mg BID, p=0.16, not significant) is 31%. Also, the “Carry-over effect, LTE4 in urine” value in experiment [3] (setting [7]) is −0.06. The “Increase of urine levels of LTE4” value in experiment [3] (highest dose, [15%,40%], p<0.001) turned out to be 27%; in experiment [3] (pooled dose set 500 mg and 750 mg, [13%,30%]), 21%. For the same compound, the “Reduction of SAA” value in experiment [4] worked out at 15%. Moreover, the “Maximum reduction in LTB4 production” value in experiment [5] (750 mg/day, [10%,39%], p=0.003) turned out to be 26%. Also, in experiment [5] (setting [7]), the “Carry-over effect, LTB4 in whole blood, corr. for wbc, m.s.” value amounted to 0.12. In experiment [5] (setting [7]), the “Carry-over effect, LTB4 in whole blood, mass spec.” value was determined as 0.19. The “Reduction of LTB4 produced by ionomycin-activated neutrophils ex vivo” value in experiment [5] (pooled set of 500 mg and 750 mg arms, [6%,27%], nominal p=0.004) is 17%. In experiment [6], the “Carry-over effect, MMP 9” value is −0.04.

The values are drawn from US20060257481A1, “Sustained release formulation and dosing schedule of leukotriene synthesis inhibitor for human therapy” (deCODE Genetics ehf., priority 2005, published 2006).
